Measured values published in patent US20250281607A1, “MEDICAMENT FOR TREATMENT AND/OR PREVENTION OF CANCER” (TORAY INDUSTRIES, INC., priority 2021, published 2025).
Each block holds one molecule with its values, some of them ahead of it.

What was measured:
[1] = system: colon cancer cell line HCT116; experiment: THP-1-mediated phagocytic activity against HCT116 (Examples 3 to 6); type: cell-based, human; settings: cells cultured 2 days with drug at 10 μM, then anti-CAPRIN-1 humanized antibody #1 1 μg/mL
Method: Specifically, in each RAS inhibitor combination test group, the indicated drug used in combination was applied to human cancer cells, and then the cancer cells were cocultured with human monocytic cells (THP-1) in the presence of the anti-CAPRIN-1 antibody, and the antibody-mediated phagocytic activity against the cancer cells by THP-1 was evaluated.
The human-derived cancer cells used were a colon cancer cell line HCT116. On a 6-well plate, the human-derived cancer cells were cultured for 2 days in the presence of the indicated drug used in combination in the lonafarnib combination test group, the sotorasib combination test group and the salirasib combination test group. […]
Each cancer cell line after the culture was dissociated with TrypLE Express (Thermo), and the cancer cells were stained by the addition of calcein-AM at a final concentration of 0.04 μg/mL and incubation at 37° C. for 10 minutes. […] Further, dead cells were stained with propidium iodide (PI) (final concentration: 0.1 μg/mL), followed by the measurement of fluorescence from the cells by flow cytometry. […] Thus, the phagocytic activity in this evaluation system was calculated as the ratio (%) of APC-positive/calcein-AM-positive cells to the whole calcein-AM-positive population. […]

[2] = system: colon cancer cell line HCT116; experiment: THP-1-mediated phagocytic activity against HCT116 (Example 2); type: cell-based, human; settings: then anti-CAPRIN-1 humanized antibody #1 5 μg/mL, FIG. 2
Method: Specifically, in each combination test group (a trametinib combination test group, a fluorouracil combination test group and an irinotecan combination test group), the indicated drug used in combination was applied to human cancer cells, and then the cancer cells were cocultured with human monocytic cells (THP-1) in the presence of the anti-CAPRIN-1 antibody, and the antibody-mediated phagocytic activity against the cancer cells by THP-1 was evaluated. The human-derived cancer cells used were melanoma cell line A375 (used only in the trametinib combination test group), colon cancer cell line HCT116, prostate cancer cell line DU145 (used only in the trametinib combination test group), and lung cancer cell line A549 (used only in the trametinib combination test group). On a 6-well plate, the human-derived cancer cells were cultured for 2 days in the presence of trametinib for the trametinib combination test group, and cultured for 2 days in the presence of the each drug used in combination for the fluorouracil combination test group and the irinotecan combination test group. The concentration of the drug used in combination was set to a concentration that decreased the proliferation rate of the cancer cells by about half at the completion of culture. […]
Each cancer cell line after the culture was dissociated with TrypLE Express (Thermo), and the cancer cells were stained by the addition of calcein-AM at a final concentration of 0.02 μg/mL and incubation at 37° C. for 30 minutes. […] Further, dead cells were stained with propidium iodide (PI) (final concentration: 0.1 μg/mL), followed by the measurement of fluorescence from the cells by flow cytometry. […] Thus, the phagocytic activity in this evaluation system was calculated as the ratio (%) of APC-positive/calcein-AM-positive cells to the whole calcein-AM-positive population.

[3] = target: T1, CAPRIN-1 protein (Homo sapiens, UniProt Q14444); experiment: ELISA reactivity with CAPRIN-1 protein immobilized on a plate; type: binding
T1 construct: made in house
T1 sequence (Q14444 1-709): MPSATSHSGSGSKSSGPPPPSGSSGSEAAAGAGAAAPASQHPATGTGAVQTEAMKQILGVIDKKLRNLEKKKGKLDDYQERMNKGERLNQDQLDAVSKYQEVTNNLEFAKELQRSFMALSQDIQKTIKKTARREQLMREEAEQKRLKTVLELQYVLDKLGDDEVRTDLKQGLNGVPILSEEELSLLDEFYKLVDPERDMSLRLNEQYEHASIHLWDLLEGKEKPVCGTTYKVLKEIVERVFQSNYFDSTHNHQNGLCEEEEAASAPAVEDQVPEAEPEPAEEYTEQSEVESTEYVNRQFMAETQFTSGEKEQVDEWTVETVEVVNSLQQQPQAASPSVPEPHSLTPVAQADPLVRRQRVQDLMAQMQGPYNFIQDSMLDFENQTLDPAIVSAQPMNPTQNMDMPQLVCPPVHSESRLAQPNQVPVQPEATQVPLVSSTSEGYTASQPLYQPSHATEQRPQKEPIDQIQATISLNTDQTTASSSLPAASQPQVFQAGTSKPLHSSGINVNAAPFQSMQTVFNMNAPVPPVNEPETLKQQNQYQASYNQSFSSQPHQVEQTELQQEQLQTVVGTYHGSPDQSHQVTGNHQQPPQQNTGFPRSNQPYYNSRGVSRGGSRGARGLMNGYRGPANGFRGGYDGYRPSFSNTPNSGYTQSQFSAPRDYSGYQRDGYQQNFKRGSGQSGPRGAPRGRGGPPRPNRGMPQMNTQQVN
Method: One hundred (100) μg of a human CAPRIN-1 recombinant protein produced according to Example 3 of WO2010/016526 was mixed with a MPL+TDM adjuvant (Sigma) in an amount equivalent to that of the recombinant protein. The mixture was used as an antigen solution per mouse. The antigen solution was administered intraperitoneally to 6-week-old Balb/c mice (Japan SLC Inc.) and then further administered 3 times […] every week for completion of immunization. A spleen was removed on day 3 after the final immunization and then ground between two sterilized glass slides. Spleen cells were obtained by repeating the following procedure three times: washing with PBS (-) (Nissui Corporation), centrifuging at 1500 rpm for 10 minutes, and removing supernatant. The obtained spleen cells were mixed with mouse myeloma cell SP2/0 (purchased from ATCC) at a ratio of 10:1. The PEG solution prepared by mixing 200 μl of RPMI1640 medium containing 10% FBS heated at 37° C. and 800 μl of PEG1500 (Boehringer) was added to the cells. The solution was incubated for 5 minutes for cell fusion. Centrifugation was performed at 1700 rpm for 5 minutes to remove supernatants. […] Absorbance at 450 nm and absorbance at 595 nm were measured using an absorption spectrometer. As a result, a plurality of hybridomas producing antibodies with high absorbances were selected. […]

Molecule: O=C(Nc1ccc2[nH]nc(-c3ccncc3)c2c1)[C@@H]1CCN(CC(=O)N2CCN(c3ccc(-c4ncccn4)cc3)CC2)C1 [SCH772984, (3R)-1-[2-oxo-2-[4-(4-pyrimidin-2-ylphenyl)piperazin-1-yl]ethyl]-N-(3-pyridin-4-yl-1H-indazol-5-yl)pyrrolidine-3-carboxamide]
phagocytic activity against cancer cells ([1]; FIG. 5): 90%

Molecule: COc1cc(Nc2c(C#N)cnc3cc(OCCCN4CCN(C)CC4)c(OC)cc23)c(Cl)cc1Cl [bosutinib, 4-(2,4-dichloro-5-methoxyanilino)-6-methoxy-7-[3-(4-methylpiperazin-1-yl)propoxy]quinoline-3-carbonitrile]
phagocytic activity against cancer cells ([1]; FIG. 3): 82%

Molecule: O=c1[nH]cc(F)c(=O)[nH]1 [fluorouracil]
phagocytic activity against cancer cells ([2]; cells cultured 2 days with drug at 0.4 μg/mL): 16%

Molecule: CCc1c2c(nc3ccc(OC(=O)N4CCC(N5CCCCC5)CC4)cc13)-c1cc3c(c(=O)n1C2)COC(=O)[C@]3(O)CC [irinotecan]
phagocytic activity against cancer cells ([2]; cells cultured 2 days with drug at 15 μM): 14%

specific reactivity to CAPRIN-1 protein [3]: exhibiting reactivity
B1: monoclonal antibody against CAPRIN-1 described in WO2013/125630: mouse monoclonal antibody; heavy-chain variable region SEQ ID NO: 114, light-chain variable region SEQ ID NO: 115; parent of humanized … (antibody, listed as Mus musculus, V domains shown)
VH: GPELVKPGASVKMSCKASGYTFTSYVMHWVKQKPGQGLEWIGYINPYNDGTKYNEKFKGKATLTSDKSSSTAYMELSSLTSEDSAVYYCARRYYYGSSGGYFDVWAQDHVRT
VL: DVQITQSPSYLAASPGETITINCRASKSISKYLAWYQEKPGKTNKLLIYSGSTLQSGIPSRFSGSGSGTDFTLTISSLEPEDFAMYYCQQHNEYPYTFGGGTKLEIKR
notes: mouse monoclonal antibody; parent of humanized antibody #1
